Assay results from patent US20040071656A1, “Modulation of heat-shock-protein-based immunotherapies” (priority 2001, published 2004).

What was measured:
[1] = molecular target: T1, exoplasmic domain of human CD40 (GST-CD40) (Homo sapiens, UniProt P25942); assay: GST-CD40 pull-down of endogenous heat shock proteins from Hela cell lysate; type: binding; details: 80 or 400 pmol GST-CD40, immunoblot
T1 construct: The cDNA for the exoplasmic domain of CD40 (amino acids 20-212); made in house; host or cells: E. coli, pGEX-2T
T1 sequence (P25942 20-212): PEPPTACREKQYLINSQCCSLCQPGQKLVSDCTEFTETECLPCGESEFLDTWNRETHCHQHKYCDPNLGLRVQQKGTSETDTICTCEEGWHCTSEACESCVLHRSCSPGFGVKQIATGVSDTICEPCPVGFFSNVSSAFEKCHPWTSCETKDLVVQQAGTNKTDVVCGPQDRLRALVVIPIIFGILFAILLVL
Description: Binding assays with GST-CD40. For binding of endogenous Hsp70 and Hsc70 from Hela cell lysate, Hela cells were lysed as described above and centrifuged at 100,000 g at 4° C. for 1 h. 20 μl bed volume of Glutathione Sepharose 4 Fast Flow (Amersham Pharmacia) per sample were preincubated with 80 pmol or 400 pmol of GST or GST-CD40 fusion protein in 50 μl binding buffer. Unbound protein was removed by washing three times with PBS. The beads were treated with 1% BSA/PBS to avoid non-specific binding, and than incubated with 150 μl of Hela cell lysate in the presence of 2 mM DTT for 20 min at 16° C. […] 10 μl of the eluates was subjected to SDS-PAGE and analyzed by immunoblotting using an anti-Hsc/Hsp70 antibody and an anti-Hsp90: antibody (SPA822 and SPA835, Stressgen). […]
Details for FIG. 3. […] Thereafter samples were affinity purified on glutathione-Sepharose as outlined in Experimental Procedures, subjected to SDS-PAGE and analyzed by immunoblotting with antibodies directed against Hsc70 and Hsp70 (upper lanes), and against Hsp90 (lower lanes). […] After affinity purification samples were analyzed by immunoblotting as described in A, using antibodies directed against the His6-tag. […] Protein bound to Hsp70 was analyzed by affinity purification on Ni-NTA-agarose and immunoblotting with antibodies directed against CD40.

ANA1 cells = assay: Binding of biotinylated Hsp70 / Hsp70-peptide C-biotin to ANA1 macrophage cells, fluorescence microscopy; type: cell-based, murine; details: 100 nM biotinylated protein
Description: Cell culture and fluorescence microscopy. The murine macrophage cell line ANA1 was kindly provided by H. Wagner (Munich, Germany). ANA-1 cells were cultured in VLE-RPMI 1640 (Biochrom), supplemented with 10% FCS, 2 mM L-glutamine and antibiotics. For fluorescence microscopy, ANA1 cells were either stimulated with LPS (20 μg/ml, Sigma, Germany), or kept in an LPS-free medium (mock treatment) for 7 h. After stimulation, cells were harvested and incubated with 100 nM biotinylated Hsp70, biotinylated GST, or Hsp70/peptide C-biotin complex for 30 min at 0° C. in VLE-RPMI 1640. After incubation cells were processed for staining with streptavidin-TRITC (Sigma, Germany), fixed with paraformaldehyde and analyzed by fluorescence microscopy (Axiovert 35, Zeiss) as described (Sondermann et al., 2000). […] Twenty-four h post-transfection cells were incubated with 250 nM biotinylated Hsp70, biotinylated GST or Hsp70/peptide C-biotin complex for 30 min at 0° C. in DMEM, fixed, stained with streptavidin-TRITC (Sigma, Germany), and analyzed by fluorescence microscopy as described (Sondermann et al., 2000, idem). […] Stably transfected cell lines were analyzed by immunoblotting for CD40 expression using an anti-CD40 antibody (CSA180, Stressgen). […]
Details for FIG. 1. […] After 30 min at 4° C. cells were washed, incubated with TRITC-labeled streptavidin, washed again, and processed for fluorescence microscopy. […]

Hsp70: Recombinant human heat shock protein 70, expressed and purified as His-tagged protein
binding to GST-CD40 from Hela-cell lysates [1]: bound to GST-CD40 in a concentration dependent manner
binding to LPS-stimulated ANA-1 cells (ANA1 cells; LPS 20 μg/ml 7 h): significant increase in binding
binding to unstimulated ANA-1 cells (ANA1 cells; mock treated cells, 30 min, streptavidin-TRITC): weak but clearly detectable binding
